# Experimental data from patent US20140350273A1, “PEDIATRIC USES OF CABAZITAXEL” (AVENTIS PHARMA S.A., priority 2012, published 2014).
# Read-outs that look alike come from different tables or passages of the source.
# Tested on: human Ewing's sarcoma TC-71
# Format: in vivo
# Conditions: for Average body weight change in % per mouse at nadir / Biological interpretation / Drug death / Regressions Complete / Regressions Partial / Tumor free survivors at day 120 / day of nadir / ΔT/ΔC in % (day 21): 16
# Experimental: This efficacy may be quantified, for example, as changes in tumor volume for each treated (T) and control (C) group, which are calculated for each animal and each day by subtracting the tumor volume on the day of first treatment (staging day) from the tumor volume on the specified observation day. This allows calculating the tumor growth inhibition: ΔT/ΔC=(median delta T/median delta C)×100. Individual tumor volume changes from baseline are thereafter analyzed by a non-parametric two-way ANOVA-TYPE (with factors: group and repeated days) followed by a post-hoc contrasts analysis, with Bonferroni-Holm adjustment for multiplicity, comparing all treated groups to the control group. […] A probability less than 5% (p<0.05) was considered as significant.
# Based on the National Cancer Institute (NCl) standards, a ΔT/ΔC≦40% is the minimal level required to declare activity.
# The tumor doubling time (in days; Td) was estimated from the plot of the log linear growth of the control group tumors in exponential growth (100 to 1000 mm^3 range) [T. H. Corbett et al., Cancer, 40: 2660-2680 (1977); F. M. Schabel et al., Cancer Drug Development, Part B, Methods in Cancer Research, 17: 3-51, New York, Academic Press Inc. (1979)].
# This efficacy may also be quantified by the number of tumor regressions observed after therapy. Individual mice reporting a tumor volume ≦50% of the Day 0 measurement for two consecutive measurements over a seven day period were considered partial responders (PR). Individual mice lacking palpable tumors (<4×4 mm^2 for two consecutive measurements over a seven day period) were classified as complete responders (CR); a CR that persisted until study completion was considered a tumor-free survivor (TFS).
# The animals subjected to the experiment are subcutaneously grafted unilaterally with approximately 30 mg of a tumor fragment on day 0. The animals are implanted with a human tumor xenografted in immunocompromized mice. Several days post tumor implantation, mice are randomized according to their body weight to the different groups of treatments and controls. The animals are observed every day. […] The groups are then weighed once or twice a week until the end of the trial.
# The tumors are measured 1 to 5 times a week, depending on the tumor doubling time, until the tumor reaches approximately 1,000 mm^3, or until the animal dies (if this occurs before the tumor reaches 1,000 mm^3). The animals are necropsied immediately after euthanasia or death.
# The selected tumor model was a human Ewing's sarcoma TC-71, xenografted in SCID mice [Whang-Peng J, et al. Cancer Genet Cytogenet. 1986 Apr. 1; 21(3):185208].
# Treatment solutions were prepared first by mixing 1 volume of ethanolic stock solution and 1 volume of polysorbate 80, then by adding 18 volumes of glucose 5% in water.
# [1] = 3.5 mg/kg per injection (total 7.0) IV days 12
# [2] = 5.6 mg/kg per injection (total 11.2) IV days 12
# [3] = 5.6 mg/kg per injection (total 11.2) IV days 12, listed as CABAZITAXEL
# [4] = 9.0 mg/kg per injection (total 18) IV days 12
# [5] = 9.0 mg/kg per injection (total 18) IV days 12, listed as CABAZITAXEL
# [6] = 14.5 mg/kg per injection (total 29) IV days 12
# [7] = 14.5 mg/kg per injection (total 29) IV days 12, listed as CABAZITAXEL
# [8] = 3.5 mg/kg per injection (total 7.0) IV days 12, listed as DOCETAXEL
# [9] = 3.5 mg/kg per injection (total 7.0) IV days 12, listed as docetaxel
# [10] = 9.0 mg/kg per injection (total 18) IV days 12, listed as DOCETAXEL
# [11] = 9.0 mg/kg per injection (total 18) IV days 12, listed as docetaxel
# [12] = 14.5 mg/kg per injection (total 29) IV days 12, listed as DOCETAXEL
compound,measurement,setting,value
"CO[C@H]1C(=O)[C@]2(C)[C@@H](OC)C[C@H]3OC[C@@]3(OC(C)=O)[C@H]2[C@H](OC(=O)c2ccccc2)[C@]2(O)C[C@H](OC(=O)[C@H](O)[C@@H](NC(=O)OC(C)(C)C)c3ccccc3)C(C)=C1C2(C)C [Cabazitaxel, 4α-acetoxy-2α-benzoyloxy-5β,20-epoxy-1β-hydroxy-7β,10β-dimethoxy-9-oxo-11-taxen-13α-yl (2R,3S)-3-tert-butoxycarbonyl-amino-2-hydroxy-3-phenylpropionate]",Average body weight change in % per mouse at nadir,[1],−2.3%
same,Biological interpretation,[1],active
same,Drug death,[1],0/7
same,Regressions Complete,[1],0/7
same,Regressions Partial,[1],0/7
same,Tumor free survivors at day 120,[1],0/7
same,day of nadir,[1],21 days
same,ΔT/ΔC in % (day 21),[1],27%
same,Biological interpretation,"3.5 mg/kg per injection (total 7.0) IV days 12, listed as CABAZITAXEL",Active
same,Average body weight change in % per mouse at nadir,[2],−7.0%
same,Drug death,[2],0/7
same,Regressions Complete,[2],0/7
same,Regressions Partial,[2],6/7
same,Tumor free survivors at day 120,[2],0/7
same,day of nadir,[2],18 days
same,Biological interpretation,[3],Highly Active
same,ΔT/ΔC in % (day 21),[3],<0%
same,Biological interpretation,"5.6 mg/kg per injection (total 11.2) IV days 12, listed as cabazitaxel",highly active
same,Tumor volume changes from baseline: Median (nMad),"5.6 mg/kg, day 26",−162 (65.2)
same,Average body weight change in % per mouse at nadir,[4],−7.0%
same,Drug death,[4],0/7
same,Regressions Complete,[4],6/7
same,Regressions Partial,[4],7/7
same,Tumor free survivors at day 120,[4],6/7
same,day of nadir,[4],18 days
same,Biological interpretation,[5],Highly Active
same,ΔT/ΔC in % (day 21),[5],<0%
same,Biological interpretation,"9.0 mg/kg per injection (total 18) IV days 12, listed as cabazitaxel",highly active
same,Tumor volume changes from baseline: Median (nMad),"9 mg/kg, day 26",−196 (51.9)
same,Tumor volume changes from baseline: Median (nMad),"9 mg/kg, day 28",−196 (50.4)
same,Tumor volume changes from baseline: Median (nMad),"9 mg/kg, day 30",−196 (50.4)
same,Tumor volume changes from baseline: Median (nMad),"9 mg/kg, day 34",−196 (72.6)
same,Average body weight change in % per mouse at nadir,[6],−9.0%
same,Drug death,[6],0/7
same,Regressions Complete,[6],7/7
same,Regressions Partial,[6],7/7
same,Tumor free survivors at day 120,[6],6/7
same,day of nadir,[6],23 days
same,Biological interpretation,[7],Highly Active
same,ΔT/ΔC in % (day 21),[7],<0%
same,Biological interpretation,"14.5 mg/kg per injection (total 29) IV days 12, listed as cabazitaxel",highly active
same,Tumor volume changes from baseline: Median (nMad),"14.5 mg/kg, day 26",−184 (43)
same,Tumor volume changes from baseline: Median (nMad),"14.5 mg/kg, day 28",−194 (47.4)
same,Tumor volume changes from baseline: Median (nMad),"14.5 mg/kg, day 30",−198 (53.4)
same,Tumor volume changes from baseline: Median (nMad),"14.5 mg/kg, day 34",−198 (53.4)
same,Tumor volume changes from baseline: Median (nMad),"14.5 mg/kg, day 36",−180 (53.4)
same,Tumor volume changes from baseline: Median (nMad),"14.5 mg/kg, day 40",−180 (53.4)
same,antitumor activity compared with docetaxel,conclusion of example 2,more active than docetaxel
"CC(=O)O[C@@]12CO[C@@H]1C[C@H](O)[C@@]1(C)C(=O)[C@H](O)C3=C(C)[C@@H](OC(=O)[C@H](O)[C@@H](NC(=O)OC(C)(C)C)c4ccccc4)C[C@@](O)([C@@H](OC(=O)c4ccccc4)[C@H]21)C3(C)C [Docetaxel, docetaxel]",Average body weight change in % per mouse at nadir,[1],−1.8%
same,Drug death,[1],0/7
same,Regressions Complete,[1],0/7
same,Regressions Partial,[1],0/7
same,Tumor free survivors at day 120,[1],0/7
same,day of nadir,[1],13 days
same,Biological interpretation,[8],Inactive
same,ΔT/ΔC in % (day 21),[8],77%
same,Biological interpretation,[9],inactive
same,ΔT/ΔC in % (day 21),[9],> 40%
same,Tumor volume changes from baseline: Median (nMad),"3.5 mg/kg, day 19",629
same,Tumor volume changes from baseline: Median (nMad),"3.5 mg/kg, day 21",1044
same,Average body weight change in % per mouse at nadir,[2],−13.7%
same,Drug death,[2],0/7
same,Regressions Complete,[2],0/7
same,Regressions Partial,[2],0/7
same,Tumor free survivors at day 120,[2],0/7
same,day of nadir,[2],22 days
same,ΔT/ΔC in % (day 21),[2],31%
same,Biological interpretation,"5.6 mg/kg per injection (total 11.2) IV days 12, listed as DOCETAXEL",Active
same,Biological interpretation,"5.6 mg/kg per injection (total 11.2) IV days 12, listed as docetaxel",active
same,Tumor volume changes from baseline: Median (nMad),"5.6 mg/kg, day 19",371
same,Tumor volume changes from baseline: Median (nMad),"5.6 mg/kg, day 21",416
same,Tumor volume changes from baseline: Median (nMad),"5.6 mg/kg, day 26",1022.5
same,Average body weight change in % per mouse at nadir,[4],−10.8%
same,Drug death,[4],0/7
same,Regressions Complete,[4],0/7
same,Tumor free survivors at day 120,[4],0/7
same,day of nadir,[4],23 days
same,Biological interpretation,[10],Highly Active
same,Regressions Partial,[10],2/7
same,ΔT/ΔC in % (day 21),[10],<0%
same,Biological interpretation,[11],highly active
same,Regressions Partial,[11],5/7
same,Tumor volume changes from baseline: Median (nMad),"9 mg/kg, day 19",139
same,Tumor volume changes from baseline: Median (nMad),"9 mg/kg, day 21",−36
same,Tumor volume changes from baseline: Median (nMad),"9 mg/kg, day 26",158
same,Tumor volume changes from baseline: Median (nMad),"9 mg/kg, day 30",406 (252)
same,Tumor volume changes from baseline: Median (nMad),"9 mg/kg, day 34",867 (209)
same,Average body weight change in % per mouse at nadir,[6],−12.4%
same,Drug death,[6],0/7
same,Regressions Complete,[6],2/7
same,Regressions Partial,[6],6/7
same,Tumor free survivors at day 120,[6],1/7
same,day of nadir,[6],23 days
same,Biological interpretation,[12],Highly Active
same,ΔT/ΔC in % (day 21),[12],<0%
same,Biological interpretation,"14.5 mg/kg per injection (total 29) IV days 12, listed as docetaxel",highly active
same,Tumor volume changes from baseline: Median (nMad),"14.5 mg/kg, day 16",154
same,Tumor volume changes from baseline: Median (nMad),"14.5 mg/kg, day 19",−72
same,Tumor volume changes from baseline: Median (nMad),"14.5 mg/kg, day 21",−130
same,Tumor volume changes from baseline: Median (nMad),"14.5 mg/kg, day 26",−130
same,Tumor volume changes from baseline: Median (nMad),"14.5 mg/kg, day 28",−144
same,Tumor volume changes from baseline: Median (nMad),"14.5 mg/kg, day 30",−126
same,Tumor volume changes from baseline: Median (nMad),"14.5 mg/kg, day 34",−49
same,Tumor volume changes from baseline: Median (nMad),"14.5 mg/kg, day 36",75 (330.6)
same,Tumor volume changes from baseline: Median (nMad),"14.5 mg/kg, day 40",763
